A short description of series [1]: Hygroscopic properties (storage, weight change). It is filed as physicochemical. Here is the method:
The type I crystals and the type III crystals were stored under conditions of 25° C. and a relative humidity of 97%.
These crystals were sampled over time, and the weights of the crystals were measured to determine the rates of change in weight.
Rate of change in weight (%)=((B−A)/A)×100
A: Weight of the crystals before the start of the test
B: Weight of the crystals after the start of the test

Series [2] can be described thus: Physical stability (2): type I + type II crystals suspended in acetonitrile, crystal form by powder X-ray diffraction. Type of series: physicochemical. The conditions noted are these: acetonitrile (nonaqueous conditions), conclusion in words. On the procedure:
The type I crystals and the type 11 crystals were mixed, suspended in acetonitrile, and stirred at 5, 25, or 40° C.
(§1) The mixture was sampled over time, and the crystal form was measured by powder X-ray diffraction.

The format of series [3] is physicochemical. On the procedure:
The type I crystals and the type III crystals were mixed, suspended in acetonitrile, and stirred at 5, 25, or 40° C.
as §1

The nature of series [4]: Stability (1): light irradiation, HPLC purity. It is filed as physicochemical. The conditions noted are these: for Stability against light: 1,200,000 lx·hr, conclusion in words. On the procedure: Test Example 5 Stability (1) The type I crystals, the type II crystals, and the type Ill crystals were placed in a light stability tester and irradiated with light (1,200,000 lx·hr) (light source: D65 lamp (FLR20S-D-EDL-D65/M)).
The purity of the crystals of each type was measured by HPLC.
(§2) Measurement wavelength: 254 nm
Column: Ascentis Express C18 (Sigma-Aldrich Japan), particle diameter: 5 μm, inner diameter 4.6 mm×length 150 mm
(§3) Column temperature: 40° C.
(§4) Mobile phase A: water/acetic acid=1000/1 solution
(§5) Mobile phase B: acetonitrile/acetic acid=1000/1 solution

Series [5] is described as follows: Stability (2): storage at 60° C. and relative humidity 75%, HPLC purity. It is filed as physicochemical. The conditions noted are these: relative humidity 75%; for Stability: conclusion in words. Here is the method: The type I crystals, the type II crystals, and the type III crystals were stored under conditions of 60° C. and a relative humidity of 75%.
These crystals were sampled over time, and their purity was measured by HPLC.
as §2
Column: Ascentis Express C18, particle size: 5 μm, 4.6 mm in inside diameter×150 mm in length
as §3, §4, §5

Series [6] can be described thus: Solubility in aqueous sulfobutyl ether-β-cyclodextrin (SBEβCD) solution. The conditions noted are these: for solubility: aqueous with cosolvent or surfactant or cyclodextrin, thermodynamic from solid, read-out: Solubility (dissolved / not dissolved). It is filed as physicochemical. On the procedure:
32.4 mL of water for injection was added to 6.00 g of sulfobutyl ether-β-cyclodextrin (CYCLOLAB Cyclodextrin Research & Development Laboratory Ltd.) (hereinafter also referred to as “SBEβCD”), and the solution was then stirred at 25° C. for 10 minutes. After the dissolution of the substance had been confirmed by visual observation, the mixed solution was cooled to 10° C. Thereafter, 0.50 g of type I crystal or type II crystal was added to the reaction mixture, and the obtained solution was then heated stepwise, until the crystal was dissolved in the solution.
32.5 mL of water for injection was added to 6.00 g of SBEβCD, and the solution was then stirred at 25° C. for 10 minutes. After the dissolution of the substance had been confirmed by visual observation, the mixed solution was cooled to 0° C., 5° C. or 10° C. Thereafter, 0.48 g of type 111 crystal was added to the reaction mixture, and the obtained solution was then stirred, until the crystal was dissolved in the solution.

For series [7], the target named is uridyldiphospho-3-O-acyl-N-acetylglucosamine deacetylase (LpxC) (Pseudomonas aeruginosa, UniProt P47205). The conditions noted are these: known from Patent Literature 1; cited from earlier work.
The format of series [8] is physicochemical. Here is the method:
The type I crystals and the type II crystals were mixed, suspended in a 40% aqueous acetonitrile solution, and stirred at 25° C.
as §1
The source holds these as a separate data set.

Setting [9] is: 25° C., relative humidity 97%, 4 weeks.
Where [10] appears, read: after light irradiation 1,200,000 lx·hr, D65 lamp.
Setting [11] is: light stability test, before start of test.

Where two headings read alike, the source gives them in different places.

Sequence of uridyldiphospho-3-O-acyl-N-acetylglucosamine deacetylase (LpxC) (P47205 whole entry): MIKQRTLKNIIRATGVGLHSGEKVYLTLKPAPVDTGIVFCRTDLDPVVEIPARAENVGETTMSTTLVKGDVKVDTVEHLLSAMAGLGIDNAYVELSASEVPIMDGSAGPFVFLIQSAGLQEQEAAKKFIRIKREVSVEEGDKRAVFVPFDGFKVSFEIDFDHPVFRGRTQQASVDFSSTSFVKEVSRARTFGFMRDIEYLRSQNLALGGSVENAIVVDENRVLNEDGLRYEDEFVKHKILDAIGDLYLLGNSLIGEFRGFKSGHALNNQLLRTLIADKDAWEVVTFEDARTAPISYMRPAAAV

As for `CNC(=O)[C@@](C)(C(=O)NO)N(C)C(=O)c1ccc(C#Cc2ccc([C@H](O)CO)cc2)cc1` [Type III crystals, (2S)-2-((4-((4-((1S)-1,2-dihydroxyethyl)phenyl)ethynyl)benzoyl)(methyl)amino)-N-hydroxy-N′,2-dimethylmalonamide], the “Rate of change in weight (%)” value is 0.10% in series [1] (setting [9]) and 0.03% in series [1] (25° C., relative humidity 97%, 16 weeks). Further, in series [1] (25° C., relative humidity 97%, time not stated), the “Rate of change in weight” value is on record as at most 0.1%. Besides, the Hygroscopic properties result in series [1] (conclusion in words) is “low”. The “Physical stability / crystal transformation” value in series [2] is “more stable than the type I crystals and the type II crystals”; in series [3], “more stable than the type I crystals”. Moreover, the Stability against light entry in series [4] was “more stable against light than the type I crystals”. For the same molecule, the “HPLC purity (%)” value in series [4] (setting [10]) is listed as 99.4%; in series [4] (setting [11]) it was 99.5%; in series [5] (4 weeks), 99.3%; in series [5] (7 weeks), 98.6%; in series [5] (13 weeks), 94.8%; in series [5] (13 weeks, listed as type III crystals), “approximately 95%”. Further, the “HPLC purity (%)” value in series [5] (before start of test) is on record as 99.5%. Further, the Stability result is listed as “more stable than the type I crystals” in series [5] and “most stable” in series [5] (listed as type Ill crystals). Besides, the “Temperature at which the crystal was dissolved in the solution” value (“Temperature” for short) in series [6] was at most 0 °C. The solubility in series [6] (0 °C, 0 ° C.) was above 14.8 mg/mL; in series [6] (5 °C, 5 ° C.) it was above 14.8 mg/mL.
In the case of `CNC(=O)[C@@](C)(C(=O)NO)N(C)C(=O)c1ccc(C#Cc2ccc([C@H](O)CO)cc2)cc1` [compound A, (2S)-2-((4-((4-((1S)-1,2-dihydroxyethyl)phenyl)ethynyl)benzoyl)(methyl)amino)-N-hydroxy-N′,2-dimethylmalonamide], in series [7], the LpxC inhibitory activity entry is on record as “excellent”.
Regarding `CNC(=O)[C@@](C)(C(=O)NO)N(C)C(=O)c1ccc(C#Cc2ccc([C@H](O)CO)cc2)cc1` [Type I crystals, (2S)-2-((4-((4-((1S)-1,2-dihydroxyethyl)phenyl)ethynyl)benzoyl)(methyl)amino)-N-hydroxy-N′,2-dimethylmalonamide, reference compound], the “Rate of change in weight (%)” value in series [1] (setting [9]) is on record as 0.80%; in series [1] (25° C., relative humidity 97%, 13 weeks) it was 1.09%; in series [1] (25° C., relative humidity 97%, 13 weeks, listed as type I crystals), at least 1%. Also, the “Physical stability / crystal transformation” value in series [8] is “transformed to the type II crystals”; in series [2], “transformed to the type III crystals”; in series [3] it was “transformed to the type III crystals”. In addition, in series [4], the Stability against light entry is listed as “reduced”. For the same molecule, the “HPLC purity (%)” value in series [4] (setting [10]) is reported as 96.1%; in series [4] (setting [11]), 99.2%; in series [5] (4 weeks), 98.7%; in series [5] (7 weeks), 97.6%; in series [5] (13 weeks) it was 90.4%; in series [5] (13 weeks, listed as type I crystals), “approximately 90%”. In series [5] (before start of test), the “HPLC purity (%)” value worked out at 99.2%. Also, the “Temperature” value in series [6] came to 25 °C. For the same molecule, the solubility in series [6] (10 °C, 10 ° C.) was below 15.4 mg/mL; in series [6] (15 °C, 15 ° C.) it was below 15.4 mg/mL; in series [6] (20 °C, 20 ° C.), below 15.4 mg/mL; in series [6] (25 °C, 25 ° C.), above 15.4 mg/mL.
Consider `CNC(=O)[C@@](C)(C(=O)NO)N(C)C(=O)c1ccc(C#Cc2ccc([C@H](O)CO)cc2)cc1` [Type II crystals, (2S)-2-((4-((4-((1S)-1,2-dihydroxyethyl)phenyl)ethynyl)benzoyl)(methyl)amino)-N-hydroxy-N′,2-dimethylmalonamide], for which the figures for the “Physical stability / crystal transformation” value in series [8] and in series [2] were “more stable than the type I crystals” and “transformed to the type III crystals”, respectively. For the same molecule, in series [4] (listed as type 11 crystals), the Stability against light result is given as “more stable against light than the type I crystals”. For the same molecule, the “HPLC purity (%)” value is on record as 98.5% in series [4] (setting [10]); 99.1% in series [4] (setting [11]); 98.7% in series [5] (4 weeks); 97.7% in series [5] (7 weeks); 91.2% in series [5] (13 weeks); “approximately 91%” in series [5] (13 weeks, listed as type II crystals). Further, the “HPLC purity (%)” value in series [5] (before start of test) is 99.1%. Further, the Stability result in series [5] is “more stable than the type I crystals”. Besides, the “Temperature” value in series [6] was 25 °C.

These data come from US20200308103A1, “NOVEL CRYSTALS OF HYDROXAMIC ACID DERIVATIVE, PRODUCTION METHOD THEREOF, AND PHARMACEUTICAL COMPOSITION” (FUJIFILM Toyama Chemical Co., Ltd., priority 2016, published 2020).
